One assay has as its system Panc-2H4 cells. As to the kind of experiment: Human Panc-2H4 insulin suppression assay. The assay is classed as cell-based. The text has this:
Two different assays for “classical” sstr2 functions were adopted: (1) cultured foetal rat pituitary cells secreted growth hormone which is inhibited by sstr2 agonists in a dose-dependent fashion and (2) selected glucose-sensitive sub-clones of the human Panc-1 cell line secrete insulin which is inhibited by sstr2 agonists in a dose-dependent fashion.
Glucose-sensitive sub-clones of the human Panc-1, a cell line derived from a pleiomorphic epithelioid carcinoma of the exocrine pancreas, were obtained essentially as described by Hamil et al. (2008) Biomed. Sci. Instrum. 44:441-6. Briefly, Panc-1 cells were subcultured in 24 well plates, and the medium was supplemented with an additional 5% glucose. […] The resulting sub-lines were then tested for glucose sensitivity by preparing wells of a 96-well plate (5×10^4 cells per well) which were then exposed to cultured medium containing a range of glucose concentrations (low glucose DMEM, DMEM, DMEM+1% glucose, DMEM+2.5% glucose and DMEM+5% glucose). After 24 hrs incubation, the conditioned medium was collected and assayed for insulin secretion by ELISA (Linco; cat# EZHI-14K) in accordance with the manufacturer's instructions. […] Further 96 well plates were prepared using Panc-2H4 (5×10^4 cells per well) in DMEM. After 24 hrs, the medium was switched to DMEM+5% glucose containing various test agents at various concentrations (triplicate wells per condition). After a further 24 hrs, the conditioned medium was harvested and the concentration of insulin was determined by ELISA as described above.
Results were reported as the mean SD, expressed as the fold change from cells in the presence of vehicle only.

In another assay the target is T1, sstr2 (Homo sapiens, UniProt P30874).
T1 construct: with 1×10^6 THP-1 cells in Gey's Balanced Salt Solution, 10 nM [^3H]-BN83250; endogenous in cells; host or cells: THP-1 cells (intact cells, 4 °C)
As to the kind of experiment: [3H]-BN83250 equilibrium binding to THP-1 cells (Scatchard/competition). Particulars: THP-1 cells, 2 hours at 4° C.; read-out: affinity (Scatchard analysis). As to the method:
Methods: [^3H]-BN83250 was synthesesized from (S,E)-3-(2′,2′-dimethyldodec-4′-enoylamino)-caprolactam by catalytic hydrogenation using tritium gas over a palladium catalyst (CRB Ltd, Cleveland, UK), yielding the tritiated product at a concentration of 270 μM in ethanol with a specific activity of 220Ci/mmol. The (S,E)-3-(2′,2′-dimethyldodec-4′-enoylamino)-caprolactam was prepared as follows: (S,S)-3-amino-caprolactam hydro-pyrrolidine-5-carboxylate (10 mmol) and Na2CO3 (30 mmol) in water (30 ml) were added to a solution of 2,2-dimethyl-dodec-4-enoyl chloride (10 mmol) in dichloromethane (30 ml) at ambient temperature and the reaction was stirred for 12 hours. The organic layer was then separated and the aqueous phase was extracted with additional dichloromethane (2×25 ml). The combined organic layers were dried over Na2CO3 and reduced in vacuo. The residue was purified by silica column chromatography (1:1 EtOAc:hexanes to EtOAc) to give (S,E)-3-(2′,2′-dimethyl-dodec-4′-enoyl)amino-caprolactam as a colourless oil (2.12 g, 63%). The radiolabelled compound was stored in the dark at 4° C. until required. Prior to use the specific activity was adjusted by addition of unlabelled BN83250.
For the analysis of binding, individual reactions were set up (in triplicate for each condition), with 1×10^6 THP-1 cells in Gey's Balanced Salt Solution, 10 nM [^3H]-BN83250 (at 50 Ci/mmol) and various concentrations of (S)-3(2′2′-dimethylpropionoylamino)-tetrahydropyridin-2-one (10 pM to 10 μM). Excess (100 μM) unlabelled BN83250 was used to determine the level of non-specific binding. After 2 hours at 4° C. (conditions previously shown to achieve equilibrium binding, and which prevent uptake of the radioligand that would result in an over-estimate of binding) excess label was washed away by centrifugation (3 washes with 5 ml of Gey's Balanced Salt Solution) and the bound radioactivity was determined by scintillation counting of the solubilised cell pellet.
Hits from this assay were confirmed using conventional Scatchard analysis, exactly as described in Example 4 above.

Read-outs that look alike come from different tables or passages of the source.

T1 sequence (P30874 whole entry): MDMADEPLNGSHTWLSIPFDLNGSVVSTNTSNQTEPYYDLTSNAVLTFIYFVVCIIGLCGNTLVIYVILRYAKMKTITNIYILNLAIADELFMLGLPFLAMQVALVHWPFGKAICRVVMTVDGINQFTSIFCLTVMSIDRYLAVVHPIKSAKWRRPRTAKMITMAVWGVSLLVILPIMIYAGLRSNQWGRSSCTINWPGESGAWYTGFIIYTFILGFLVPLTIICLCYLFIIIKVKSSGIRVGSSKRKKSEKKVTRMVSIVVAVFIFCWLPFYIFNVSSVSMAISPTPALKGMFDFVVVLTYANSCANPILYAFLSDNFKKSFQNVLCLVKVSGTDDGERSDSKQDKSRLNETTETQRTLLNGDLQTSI

With “(S)-3-(2′,2′-dimethyldodecanoyl)amino-caprolactam [BN83250]”, the EC50 in the assay with Panc-2H4 cells (Table 3, read-out: Human Panc-2H4 insulin suppression assay ED50) was found to be 1 µM; in the assay on Panc-2H4 cells (Table 5, read-out: Panc-2H4 insulin suppression assay (“classical” target) ED50), 1 µM. Also, the “Human Panc-2H4 insulin suppression assay Max effect” value in the assay with Panc-2H4 cells (Table 3, suppression compared to vehicle) is recorded as 28%. In addition, the “Panc-2H4 insulin suppression assay Max Effect” value in the assay with Panc-2H4 cells (Table 5) was 28%. Moreover, in the assay on Panc-2H4 cells (highest concentrations tested), the “inhibition of insulin secretion by Panc-2H4” value was “None of these agents inhibited insulin secretion”. For the same substance, the Kd at sstr2 is approximately 0.08 µM.

(Values after patent US20120115742A1, “METHODS FOR IDENTIFICATION” (Cambridge Enterprise Limited, priority 2009, published 2012).)
